Laboratory results: ChEMBL document CHEMBL5370621, “Design, Synthesis, and Biological Evaluation of Novel Thioureidobenzamide (TBA) Derivatives as HBV Capsid Assembly Modulators” (J Med Chem, 2023)

What was measured:
[1] = Selectivity index, ratio of CC50 for cytotoxicity against human HePAD38 cells to EC50 for antiviral activity against Hepatitis B virus infected in human HePAD38 cells; type: toxicity, cell-based; conditions: read-out: Ratio CC50/EC50
Hepatitis B virus = assay: Antiviral activity against Hepatitis B virus infected in human HePAD38 cells assessed as inhibition of viral DNA replication by qPCR analysis; type: functional, organism-based
[2] = Cytotoxicity against human HePAD38 cells assessed as reduction in cell viability incubated for 72 hrs by CCK8 assay; type: toxicity, cell-based

SMILES | selectivity ratio [1] | EC50 (Hepatitis B virus) [µM] | CC50 at 72 h [2] [µM]
Cc1cc(NC(=O)c2cc(NC(=O)NCc3cc(F)cc(F)c3)c(F)cc2Br)ccc1F | 20.7 | 0.18 | 3.72
CCN(CC)S(=O)(=O)c1cc(C(=O)Nc2cc(F)c(F)c(F)c2)c(Br)cc1F | 9.72 | 0.46 | 4.47
O=C(Nc1ccc(F)cc1)c1cc(S(=O)(=O)NC2CCCC2)c(F)cc1Br | 74.4 | 0.78 | 58
Cc1ccc(C(=O)Nc2cc(C(=O)Nc3ccc(F)c(C)c3)c(Br)cc2F)cc1 | 40.1 | 0.52 | 20.9
O=C(Nc1ccc(F)c(C(F)(F)F)c1)c1cc(S(=O)(=O)N[C@H]2CCOC2)c(F)cc1Br | > 19.8 | 5.06 | > 100
COCCC(=O)Nc1cc(C(=O)Nc2ccc(F)c(C)c2)c(Br)cc1F | 27.4 | 3.55 | 97.4
Cc1cc(NC(=O)c2cc(NC(=O)NCc3ccc(C(C)(C)C)cc3)c(F)cc2Br)ccc1F | > 42.9 | 2.33 | > 100
Cc1cc(NC(=O)c2cc(NC(=S)NCc3ccc(B(O)O)cc3)c(F)cc2Br)ccc1F | 106 | 0.029 | 3.08
C=C1[C@H](CO)[C@@H](O)C[C@@H]1n1cnc2c(=O)[nH]c(N)nc21 [ENTECAVIR ANHYDROUS] | 3780 | 0.021 | 79.3
C=CCNC(=S)Nc1cc(C(=O)Nc2ccc(F)c(C)c2)c(Br)cc1F | 358 | 0.14 | 50.1
O=C(Nc1ccc(F)c(Cl)c1)c1cc(S(=O)(=O)N[C@H]2CCOC2)c(F)cc1Br | 21.9 | 0.94 | 20.6
Cc1cc(NC(=O)c2cc(NC(=O)NCc3cccnc3)c(F)cc2Br)ccc1F | > 200 | 0.5 | > 100
Cc1cc(NC(=O)c2cc(NC(=O)C3CCCCC3)c(F)cc2Br)ccc1F | 15.3 | 1.35 | 20.7
Cc1cc(NC(=O)c2cc(NC(=O)NC3CCCC3)c(F)cc2Br)ccc1F | 0.96 | 5.77 | 5.52
Cc1cc(NC(=O)c2cc(NC(=O)Nc3ccc(C(F)(F)F)cc3)c(F)cc2Br)ccc1F | 0.67 | 5.21 | 3.5
Nc1ccn([C@@H]2CS[C@H](CO)O2)c(=O)n1 [LAMIVUDINE] | > 25.1 | 3.98 | > 100
Cc1cc(NC(=O)c2cc(NC(=O)N3CCC(O)CC3)c(F)cc2Br)ccc1F | > 23 | 4.34 | > 100
Cc1cc(NC(=O)c2cc(NC(=O)C3CCC3)c(F)cc2Br)ccc1F | 23 | 3.46 | 79.6
Cc1cc(NC(=O)c2cc(NC(=O)C(=O)NC(C)C)c(F)cc2Br)ccc1F | > 496 | 0.2 | > 100
Cc1cc(NC(=O)c2cc(NC(=S)NCc3cc(F)cc(F)c3)c(F)cc2Br)ccc1F | 16.4 | 0.22 | 3.61
O=C(Nc1cc(F)cc(F)c1)c1cc(S(=O)(=O)NC2CCCC2)c(F)cc1Br | > 123 | 0.81 | > 100
Cc1cc(CNC(=O)Nc2cc(C(=O)Nc3ccc(F)c(C)c3)c(Br)cc2F)ccc1F | 10.2 | 0.32 | 3.28
O=C(Nc1cc(F)c(F)c(F)c1)c1cc(S(=O)(=O)N[C@H]2CCOC2)c(F)cc1Br | 18.8 | 4.7 | 88.2
Cc1cc(NC(=O)c2cc(NC(=O)C3CCCC3)c(F)cc2Br)ccc1F | > 93.5 | 1.07 | > 100
O=C(Nc1ccc(F)c(C(F)(F)F)c1)c1cc(S(=O)(=O)NC2CCCC2)c(F)cc1Br | – | > 20 | > 100

SMILES | selectivity ratio [1] | EC50 (Hepatitis B virus) [µM] | CC50 at 72 h [2] [µM]
O=C(Nc1ccc(F)cc1)c1cc(S(=O)(=O)N[C@H]2CCOC2)c(F)cc1Br | > 41.8 | 2.39 | > 100
Cc1cc(NC(=O)c2cc(NC(=O)C3CC3)c(F)cc2Br)ccc1F | 155 | 0.54 | 84
CCCc1ccc(C(=O)Nc2cc(C(=O)Nc3ccc(F)c(C)c3)c(Br)cc2F)cc1 | 55.1 | 0.58 | 32
Cc1cc(NC(=O)c2cc(NC(=S)NCc3ccc(C(F)(F)F)cc3)c(F)cc2Br)ccc1F | 16.1 | 0.2 | 3.22
N#Cc1cc(NC(=O)c2cc(S(=O)(=O)NC3CCCC3)c(F)cc2Br)ccc1F | 13.3 | 1.45 | 19.3
CCC(CC)NC(=O)Nc1cc(C(=O)Nc2ccc(F)c(C)c2)c(Br)cc1F | 18.2 | 0.99 | 18.1
Cc1cc(NC(=O)c2cc(NC(=S)NC(C)C(F)(F)F)c(F)cc2Br)ccc1F (centres undefined) | 710 | 0.024 | 17.1
Cc1cc(NC(=O)c2cc(NC(=O)c3ccc(Br)cc3)c(F)cc2Br)ccc1F | 12.6 | 0.19 | 2.4
CCNC(=S)Nc1cc(C(=O)Nc2ccc(F)c(C)c2)c(Br)cc1F | 242 | 0.18 | 43.6
Cc1cc(NC(=O)c2cc(NC(=O)c3ccc(F)cc3)c(F)cc2Br)ccc1F | 2.59 | 0.46 | 1.19
O=C(Nc1ccc(F)c(F)c1)c1cc(S(=O)(=O)N[C@H]2CCOC2)c(F)cc1Br | 67.8 | 0.94 | 63.7
Cc1cc(NC(=O)c2cc(S(=O)(=O)N[C@H]3CCOC3)c(F)cc2Br)ccc1F | > 164 | 0.61 | > 100
Cc1cc(NC(=O)c2cc(NC(=O)NCc3ccc(C(F)(F)F)cc3)c(F)cc2Br)ccc1F | 35.6 | 0.33 | 11.8
Cc1cc(NC(=O)c2cc(NC(=O)NCc3ccc(F)cc3)c(F)cc2Br)ccc1F | 54.4 | 0.34 | 18.5
Cc1cc(CNC(=S)Nc2cc(C(=O)Nc3ccc(F)c(C)c3)c(Br)cc2F)ccc1F | 37.1 | 0.1 | 3.71
Cc1cc(NC(=O)c2cc(NC(=O)c3ccc(C(F)(F)F)cc3)c(F)cc2Br)ccc1F | 4.83 | 1.01 | 4.88
O=C(Nc1cc(F)c(F)c(F)c1)c1cc(S(=O)(=O)N2CCC(O)CC2)c(F)cc1Br | 1.98 | 1.72 | 3.41
Cc1cc(NC(=O)c2cc(NC(=O)Nc3cc(F)c(F)c(F)c3)c(F)cc2Br)ccc1F | 2.19 | 1.18 | 2.59
Cc1cc(NC(=O)c2cc(NC(=O)NCc3cc(F)c(F)c(F)c3)c(F)cc2Br)ccc1F | 5.13 | 0.72 | 3.69
C/C=C/C(=O)Nc1cc(C(=O)Nc2ccc(F)c(C)c2)c(Br)cc1F | 14.4 | 1.98 | 28.5
Cc1cc(NC(=O)c2cc(NC(=S)NCc3ccc(B(O)O)cc3)c(F)cc2C)ccc1F | 595 | 0.01 | 5.95
N#Cc1cc(NC(=O)c2cc(S(=O)(=O)N[C@H]3CCOC3)c(F)cc2Br)ccc1F | > 15.4 | 6.49 | > 100
Cc1cc(NC(=O)c2cc(NC(=O)c3ccc(C#N)cc3)c(F)cc2Br)ccc1F | 572 | 0.15 | 85.7
Cc1cc(NC(=O)c2cc(NC(=O)c3cccs3)c(F)cc2Br)ccc1F | 129 | 0.66 | 85.1
Cc1cc(NC(=O)c2cc(NC(=O)C(=O)NC3CCCC3)c(F)cc2Br)ccc1F | < 0.87 | > 20 | 17.4
